Data from US12673041B2, “4-aminobut-2-enamide derivatives and salt thereof” (TAIHO PHARMACEUTICAL CO., LTD., priority 2019, dated 2026).
Read-outs that look alike come from different tables or passages of the source.

Columns and labels:
[1] = target: T1, activated KRAS in NCI-H358 (Homo sapiens, UniProt P01116, G12C); experiment: Amount of activated KRAS on KRAS-G12C mutant cell line NCI-H358 (Ras GTPase Chemi ELISA); type: cell-based; details: for IC50: 1 hour with compound
T1 construct: host or cells: NCI-H358
Description: NCI-H358 [H358, H358] (ATCC® CRL5807™), which is a KRAS-G12C mutant human lung cancer cell line, and MIA PaCa-2 (ATCC® CRL-1420™), which is a KRAS-G12C mutant human pancreas cancer cell line, were suspended in a 10% fetal bovine serum-containing RPMI1640 medium (manufactured by Thermo Fischer SCIENTIFIC), respectively. The cell suspension was seeded into a cell culture plate and cultured in an incubator containing 5% CO2 gas at 37° C. for 1 day. The lyophilized recombinant human EGF protein (R&D systems, Cat #: 236-EG-200) was dissolved in PBS to make 0.5 mg/ml solution. […] Then, the compounds obtained in the “Preparation of Compounds” section were used as test compounds and were dissolved in DMSO, and each test compound was diluted with DMSO to give a concentration 200 times the final concentration. The solution of the test compound in DMSO was diluted with the medium used for suspending cells and added to each well of the cell-culture plate to give a DMSO final concentration of 0.5%, followed by culture in an incubator containing 5% CO2 gas at 37° C. for another 1 hour. The amount of activated KRAS after 1 hour culture in the presence of the compound was measured using Ras GTPase Chemi ELISA Kit (manufactured by Active Motif). The ratio of KRAS activity was calculated from the following equation, and the concentration of the test compound at which activity was suppressed to 50% (IC50 (μM)) was determined. […] The Ratio of KRAS activity to control (%)=(T−BG)/(C−BG)×100 • T: the emission intensity in a well into which a test compound was added. • C: the emission intensity in a well into which a test compound was not added. • BG: the emission intensity in a well into which neither a test compound nor a cell suspension was added.

[2] = target: Gppcp-bound recombinant K-Ras4B G12C mutant protein (amino acids 1-169, C51S/C80L/C118S) (Homo sapiens, UniProt P01116, C118S/C51S/C80L/G12C); experiment: KRASG12C binding assay (LC-MS compound binding rate); details: test compound final concentration 0.5 μM, 25° C., 1 hour
Procedure, shortened: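 Gppcp-bound K-Ras4B G12C (aa 1-169, C51S/C80L/C118S) at 50 nM in 1×TBS, 0.1 mM TCEP, 0.25 mM MgCl2, 50 μM Gppcp was incubated 1 hour at 25° C with compound at 0.5 μM final. Intact-protein LC-MS gave binding rate as single-adduct signal over total KRAS signal, graded A (≥80%) to E (<20%).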

[3] = NCI-H358, with EGF 100 ng/ml, read-out: IC50 NCI-H358 with EGF
[4] = NCI-H358, without EGF, read-out: IC50 NCI-H358 without EGF

## C=CC(=O)N1CCN(c2ncnc3c(F)c(-c4c(O)cccc4F)c(Cl)cc23)CC1 [ARS-1620, reference compound]
[1]; NCI-H358, EGF treatment
  KRAS inhibition activity under EGF treatment: attenuated by EGF treatment
[1]; [3]
  IC50: 5400 nM
[1]; [4]
  IC50: 1400 nM
[2]
  binding rate: E (a binding rate of less than 20% is rated “E”)

## CCc1nc2cc(-c3cccc(NC(=O)c4ccc(NC(=O)/C=C/CN[C@H]5CC[C@H](OC)CC5)c(C#N)c4)c3)c(C(F)(F)F)cc2n1C [Example 1, 3-cyano-N-(3-(2-ethyl-1-methyl-6-(trifluoromethyl)-1H-benzo[d]imidazol-5-yl)phenyl)-4-((E)-4-(((1r, 4r)-4-methoxycyclohexyl)amino)but-2-enamido)benzamide]
[1]; [3]
  IC50: 850 nM
[1]; [4]
  IC50: 750 nM
[2]
  binding rate: A (A binding rate of 80% or more is rated “A”)

## CO[C@H]1CC[C@H](NC/C=C/C(=O)Nc2ccc(C(=O)c3ccc4c(-c5cc6ncn(C)c6cc5C)cccn34)cc2C#N)CC1 [Example 4, (E)-N-(2-cyano-4-(8-(1,6-dimethyl-1H-benzo[d]imidazol-5-yl)indolizine-3-carbonyl)phenyl)-4-(((1r,4r)-4-methoxycyclohexyl)amino)but-2-enamide]
[1]; [3]
  IC50: 470 nM
[1]; [4]
  IC50: 390 nM
[2]
  binding rate: A (A binding rate of 80% or more is rated “A”)
